Counter-ions that a name gives are not always drawn. Like-named read-outs stand apart in the source and are kept apart here.
Experiments:
[1] = low solubility-low permeability; cited from earlier work
physchem = settings: 25 °C, thermodynamic from solid
Procedure: (§1) Analysis of the solid dispersions and the measure of the solubility in simulated gastrointestinal fluids were performed by HPLC with the instrument and conditions reported below.
(§2) Stirring was stopped and any undissolved solid was let to decant. The supernatant was filtered through a hydrophilic 0.2 μm PTFA filter and analyzed for the content of ursolic acid.
(§3) The same procedure as Test 1 was followed, using 100 mg of ursolic acid instead of the dispersion of example 1.
(§4) The same procedure as Test 1 was followed, using 100 mg ursolic acid potassium salt instead of the dispersion of example 1.

[2] = Dissolution test: solubility in simulated gastrointestinal fluids, ursolic acid in the supernatant by HPLC; settings: FaSSGF pH = 1.6; stirred 2 hours at 25° C., supernatant filtered 0.2 μm
Procedure: as §1, §2, §3, §4

| Compound | class according to the biopharmaceutical classification system (BCS) [1] | Ursolic acid in solution (pH 1.6) | Ursolic acid in solution (pH 5) | Ursolic acid in solution (pH 6.5) | solubility thermodynamic at 2 h (physchem; FaSSIF (simulated gastrointestinal fluid), pH 6.5, fassif) | solubility thermodynamic at 2 h (physchem; FeSSIF (simulated gastrointestinal fluid), pH 5, fessif) | Ursolic acid in solution [2] |
| --- | --- | --- | --- | --- | --- | --- | --- |
| 3β-hydroxy-urs-12-en-28-oic acid [ursolic acid] | class IV | <LOD* | 0.083 mg/mL | 0.032 mg/mL | – | – | – |
| C[C@H]1[C@H](C)CC[C@]2(C(=O)O)CC[C@]3(C)C(=CC[C@@H]4[C@@]5(C)CC[C@H](O)C(C)(C)[C@@H]5CC[C@]43C)[C@H]12 [ursolic acid potassium salt] | – | – | – | – | 154 µg/mL | 318 µg/mL | <LOD* |

— US12605347B2, “Solid dispersion of ursolic acid and potassium salt” (Indena S.P.A., priority 2019, dated 2026)
